Measured values taken from US20240415804A1, “METHOD OF TREATING PANCREATIC CANCER” (University of South Florida, priority 2022, published 2024).

Experiments:
miR-155 = miR-155 gene expression in tumors of HPC mice; type: in vivo, mouse; settings: API 25 mg/kg IP 3 times per week for 3-4 weeks, vs vehicle
Experimental: Earlier studies have shown the anti-tumor activity of API in pre-clinical experimental models of cancer^41, 62-68. The inventors have reported that API increased survival and reduced tumor growth in a heterotopic (H) mouse model of PC (HPC)^55. To investigate if API targets miR-155 and regulates SHIP-1 in the TME of an HPC mouse model, HPC mice were treated with API at a dose of 25 mg/kg (IP) 3 times per week for 3-4 weeks. […] All female C57BL/6 mice (6-8 weeks of age) described in this study were purchased from Envigo (Indianapolis, IN, USA) and were acclimatize for one week in a pathogen-free animal facility (University of South Florida (USF) vivarium) before injections with PC cells. To generate heterotopic pancreatic cancer (HPC) models, mice were subcutaneously injected with 1.5×10^5 murine Panc02 (HPC mice) or 5×10^6 murine UN-KC-6141 cells (KC-HPC mice), in sterile 1× phosphate buffer saline (PBS), in the lower ventral abdomen, while control (CTRL) mice received sterile 1×PBS. […] Relative expression of miR-155 was calculated using the comparative […] method normalized to a mouse endogenous control gene snoRNA202 and human endogenous control gene U6 (Assay IDs: 001232 and 001093).

CD40 = experiment: Flow cytometry of CD40 expression on M1 TAM in tumors of KC-HPC mice; type: in vivo, mouse; settings: KC-HPC-API vs KC-HPC mice
Experimental: The inventors then assessed the expression of CD40 (a T cell co-stimulation marker) on M1 TAM (gated as MHC-II^+ and CD206) within the tumor from KC-HPC vs. KC-HPC-API mice. […] The femur and tibia were cut at the pelvic-hip joint and muscle was removed. The femurs and tibias were cut at the ends and flushed with a 30-gauge needle and 10 cc syringe filled with completed RPMI media until bone was white onto a petri dish. Pelleted bone marrow (BM) cells were treated with Red Blood Cell (RBC) lysis buffer (eBioscience, Waltham, MA, USA), according to the manufacturer's instructions, and then filtered through a […] nylon mesh cell strainer in 1×PBS. All pancreatic tumors were manually cut into ˜1-2 mm^3 fragments with a sterile razor blade and then enzymatically digested with Collagenase, type IV (Sigma-Aldrich), DNase, type IV (Sigma-Aldrich) and Hyaluronidase, Type V (Sigma-Aldrich) in Hank's Balanced Salt Solution for 1 h, spun down and washed as described in previous studies^61. Digested pancreatic tumor samples were treated with RBC lysis buffer and then filtered through a […] nylon mesh cell strainer in 1×PBS. Bone marrow and digested pancreatic tumor single cell suspensions were counted with a hemocytometer and then resuspended in 3% FBS/PBS. […]

O=c1cc(-c2ccc(O)cc2)oc2cc(O)cc(O)c12 [API, 40,5,7-Trihydroxyflavone, 5,7-Dihydroxy-2-(4-hydroxyphenyl)-4-benzopyrone]
miR-155 gene expression in tumor (miR-155): significantly reduced | CD40 expression on M1 TAM in tumor (CD40): significantly upregulated
